Reference: the supplement of paper PMC8633005

Key:
Experiment in all cases: drug sensitivity score (DSS) (DSS (unitless, 0-50 scale)); higher = more sensitive (stronger viability inhibition); extreme values may be limits of the assay
Settings in all cases: 72 h; culture: 2D
FM-MEL-3 = test system: FM-MEL-3
Summary of the method: (§1)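 Patient-derived melanoma cultures (1000–1500 cells per well) and melanoma cell lines were grown in 2D in 384-well plates holding a 527-compound oncology library. Each compound was dissolved in DMSO or water and tested at five concentrations spanning a 10,000-fold range. After 72 h at 37 °C, viability was read by CellTiter-Glo luminescence. A drug sensitivity score, a modified area-under-curve measure, was derived from dose-response curves fitted in the in-house Breeze software.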

Bowes = test system: Bowes
Summary of the method: as §1

WM165 = test system: WM165
Summary of the method: as §1

FM-MEL-6 = test system: FM-MEL-6
Summary of the method: as §1

SK-MEL-28 = test system: SK-MEL-28
Summary of the method: as §1

FM-MEL-2 = test system: FM-MEL-2
Summary of the method: as §1

WM852 = test system: WM852
Summary of the method: as §1

SK-MEL-2 = test system: SK-MEL-2
Summary of the method: as §1

Compound | drug sensitivity score (FM-MEL-3) | drug sensitivity score (Bowes) | drug sensitivity score (WM165) | drug sensitivity score (FM-MEL-6) | drug sensitivity score (SK-MEL-28) | drug sensitivity score (FM-MEL-2) | drug sensitivity score (WM852) | drug sensitivity score (SK-MEL-2)
Cn1cc(C2=Nc3cc(NC(=O)C(N)C4CCCCC4)cc4c3C2=CNNC4=O)cn1 (stereo not given) | 9.7 | 15.5 | 13.5 | 11.1 | 2.3 | 3.1 | 12.5 | 11
CS(=O)(=O)c1ccc(-c2cnc(N)c(C(=O)Nc3ccccc3)n2)cc1 [VE-821] | 1.6 | 3.1 | 0 | 0 | 0 | 0 | 2.6 | 0
O=C(CCCCCCNC(=O)c1cnc(N(c2ccccc2)c2ccccc2)nc1)NO [Rocilinostat] | 6.4 | 2 | 5.7 | 6.6 | 3.7 | 2.8 | 2.3 | 3.4
COc1cc2nccc(Oc3ccc(NC(=O)Nc4cc(C)on4)c(Cl)c3)c2cc1OC [Tivozanib] | 4.8 | 2.8 | 3.1 | 0.5 | 3.1 | 3.4 | 1.1 | 0
Cc1c(F)cc(C(=O)NC2CC2)cc1-c1ccc(C(=O)NCC(C)(C)C)cn1 [Losmapimod] | 0.7 | 2.8 | 0 | 0 | 0 | 1.6 | 0 | 0
CC(=O)O[C@H]1C(=O)[C@@]2(C)[C@H]([C@H](OC(=O)c3ccccc3)[C@]3(O)C[C@H](OC(=O)[C@H](O)[C@@H](NC(=O)c4ccccc4)c4ccccc4)C(C)=C1C3(C)C)[C@]1(OC(C)=O)CO[C@@H]1C[C@@H]2O [Paclitaxel] | 11.9 | 23.3 | 22.2 | 13.7 | 11.5 | 5.3 | 20.5 | 16.5
COc1cc([C@@H]2c3cc4c(cc3[C@@H](O[C@@H]3O[C@@H]5CO[C@@H](C)O[C@H]5[C@H](O)[C@H]3O)[C@H]3COC(=O)[C@H]23)OCO4)cc(OC)c1O [Etoposide] | 4 | 2.7 | 19.1 | 5.7 | 5.9 | 2.9 | 0.4 | 2.6
Cc1cc(C)c(CNC(=O)c2cc(-c3ccc(CN4CCOCC4)cc3)cc3c2cnn3C2CCCC2)c(=O)[nH]1 [EPZ-5687] | 2.8 | 2.6 | 0 | 0.5 | 0 | 0 | 0 | 0
CNC(=O)c1cc(Oc2ccc(NC(=O)Nc3ccc(Cl)c(C(F)(F)F)c3)c(F)c2)ccn1 [Regorafenib] | 12.9 | 6.7 | 5.3 | 3.7 | 4.6 | 8.5 | 1.8 | 2.8
COC(=O)c1ccc([C@H]2c3[nH]c4ccccc4c3C[C@H](C(=O)OC)N2C(=O)CCl)cc1 [RSL3] | 0 | 0 | 0 | 0 | 0 | 0 | 0 | 0
CN(C)Cc1c(C(=O)NCCOc2ccc(C(=O)NO)cc2)oc2ccccc12 [Abexinostat] | 14.6 | 10 | 17 | 14.7 | 13 | 15.9 | 9.1 | 15.9
Cc1ccc(Nc2nccc(N(C)c3ccc4c(C)n(C)nc4c3)n2)cc1S(N)(=O)=O [Pazopanib] | 0 | 2.8 | 0 | 0.4 | 0 | 0 | 2.1 | 0
CN(C)C(=N)NC(=N)N [Metformin] | 0 | 0 | 0 | 0 | 0 | 0 | 0 | 0
COc1cc(CCc2cc(NC(=O)c3ccc(N4CC(C)NC(C)C4)cc3)n[nH]2)cc(OC)c1 (stereo not given) [AZD4547] | 0 | 0 | 0 | 0 | 0 | 0 | 0 | 0
COc1cccc2c1C(=O)c1c(O)c3c(c(O)c1C2=O)C[C@@](O)(C(C)=O)C[C@@H]3O[C@H]1C[C@H](N)[C@H](O)[C@H](C)O1 [Daunorubicin] | 8.3 | 4.5 | 13.4 | 7.4 | 7.2 | 6.8 | 4.6 | 4.7
Cc1ccc(C(=O)Nc2ccc(CN3CCN(C)CC3)c(C(F)(F)F)c2)cc1C#Cc1cnc2cccnn12 [Ponatinib] | 9.1 | 9.1 | 8.3 | 4.5 | 4.9 | 7.8 | 6.2 | 4.4
C=CC(=O)Nc1cccc(Nc2nc(Nc3ccc(OCCOC)cc3)ncc2F)c1 [Spebrutinib] | 1 | 2.1 | 1.1 | 1 | 0.7 | 0.9 | 0.9 | 0
CC(C)C[C@H](NC(=O)[C@H](Cc1ccccc1)NC(=O)c1cnccn1)B(O)O [Bortezomib] | 28.4 | 24.9 | 27 | 29 | 27.3 | 14.1 | 11.8 | 26.5
Nc1nc2[nH]cc(CCc3ccc(C(=O)N[C@@H](CCC(=O)O)C(=O)O)cc3)c2c(=O)[nH]1 [Pemetrexed] | 0 | 24.5 | 7.4 | 0.1 | 6.6 | 0.6 | 0 | 0
Cn1nnc2c(C(N)=O)ncn2c1=O [Temozolomide] | 0 | 0 | 0 | 0 | 0 | 0 | 0 | 0

Compound | drug sensitivity score (FM-MEL-3) | drug sensitivity score (Bowes) | drug sensitivity score (WM165) | drug sensitivity score (FM-MEL-6) | drug sensitivity score (SK-MEL-28) | drug sensitivity score (FM-MEL-2) | drug sensitivity score (WM852) | drug sensitivity score (SK-MEL-2)
CCCCCOC(=O)Nc1nc(=O)n([C@@H]2O[C@H](C)[C@@H](O)[C@H]2O)cc1F [Capecitabine] | 0 | 0 | 0 | 0 | 0 | 0 | 0 | 0
C=C1C[C@@H]2CC[C@@]34C[C@H]5O[C@H]6[C@@H](O3)[C@H]3O[C@H](CC[C@@H]3O[C@H]6[C@H]5O4)CC(=O)C[C@@H]3[C@@H](OC)[C@@H](C[C@H](O)CN)O[C@H]3C[C@H]3O[C@@H](CC[C@@H]1O2)C[C@@H](C)C3=C [Eribulin] | 9.4 | 23.6 | 22.5 | 18.5 | 11.2 | 4.8 | 22.8 | 20.4
Cc1ccc(C(=O)Nc2cccc(C(F)(F)F)c2)cc1Nc1nc(-c2cccnc2)nc2c1cnn2C [NVP-BHG712] | 10.6 | 0 | 1.9 | 3.6 | 1.3 | 6.8 | 4.7 | 0
COc1cc2c(NC3CCN(C(C)C)CC3)nc(N3CCC(F)(F)CC3)nc2cc1OCCCN1CCCC1 [UNC0642] | 0.7 | 4 | 4.5 | 2.5 | 2 | 4.5 | 5.1 | 4.1
COc1cc2c(NC3CCN(C(C)C)CC3)nc(C3CCCCC3)nc2cc1OCCCN1CCCC1 [UNC0638] | 4.4 | 6.6 | 5.8 | 2.8 | 5.8 | 6.9 | 5.9 | 5.9
Cc1c(C(=O)Nc2ccc(N3C[C@@H](C)O[C@@H](C)C3)nc2)cccc1-c1ccc(OC(F)(F)F)cc1 [Sonidegib] | 4.1 | 4.1 | 0.2 | 0.1 | 0 | 1.5 | 2.5 | 0
C=CC(=O)Nc1cc(Nc2nccc(-c3cn(C)c4ccccc34)n2)c(OC)cc1N(C)CCN(C)C [Osimertinib] | 2.7 | 2.7 | 4.3 | 4.6 | 4 | 3.2 | 3.5 | 3.4
CC(C)N(C[C@H]1O[C@@H](n2cnc3c(N)ncnc32)[C@H](O)[C@@H]1O)[C@H]1C[C@@H](CCc2nc3cc(C(C)(C)C)ccc3[nH]2)C1 [Pinometostat] | 0 | 0 | 0 | 0 | 0 | 0 | 0 | 0
Cc1ccc(NC(=O)c2ccc(CN3CCN(C)CC3)cc2)cc1Nc1nccc(-c2cccnc2)n1 [Imatinib] | 0 | 1 | 0.1 | 0 | 0.2 | 0.8 | 0.7 | 0
CCC/C=C/C=C/C(=O)O[C@H]1/C(=C/C(=O)OC)C[C@H]2C[C@H]([C@@H](C)O)OC(=O)C[C@H](O)C[C@@H]3C[C@H](OC(C)=O)C(C)(C)[C@](O)(C[C@@H]4C/C(=C/C(=O)OC)C[C@H](/C=C/C(C)(C)[C@]1(O)O2)O4)O3 [Bryostatin 1] | 0.1 | 1.7 | 2 | 5.8 | 1.9 | 0 | 4.3 | 0
C=C1C[C@@H]2[C@H](CC[C@]3(C)C(=O)CC[C@@H]23)[C@@]2(C)C=CC(=O)C=C12 [Exemestane] | 0 | 1.4 | 0.2 | 0 | 0 | 0 | 0.3 | 0
CCCCc1nc2cc(/C=C/C(=O)NO)ccc2n1CCN(CC)CC [Pracinostat] | 13.3 | 9.2 | 16.8 | 14 | 12.9 | 14.5 | 9.1 | 14
O=C(Nc1ccncc1)C(=O)c1cn(Cc2ccc(Cl)cc2)c2ccccc12 [Indibulin] | 6.1 | 11.1 | 7.8 | 6.9 | 4 | 1.4 | 5.3 | 3.7
COc1cc2c(Oc3ccc4[nH]c(C)cc4c3F)ncnc2cc1OCCCN1CCCC1 [Cediranib] | 0 | 1.7 | 0 | 1.3 | 0 | 0 | 0 | 0
COc1cc([C@@H]2c3cc4c(cc3[C@@H](O[C@@H]3O[C@@H]5CO[C@@H](c6cccs6)O[C@H]5[C@H](O)[C@H]3O)[C@H]3COC(=O)[C@H]23)OCO4)cc(OC)c1O [Teniposide] | 0 | 0 | 0 | 0 | 0 | 0 | 0 | 0
CCOc1ccccc1-n1c(C(C)N2CCN(C(=O)COc3ccc(Cl)cc3)CC2)nc2ccccc2c1=O (stereo not given) [Erastin] | 5.8 | 6.2 | 10.8 | 0 | 0 | 7.6 | 12 | 1.3
COc1cc2c(cc1OCCCN1CCCC1)N=C(N)C21CCC1 [A-366] | 0.4 | 3.8 | 2.3 | 0.5 | 0.6 | 0 | 2.7 | 0
Nc1cccc2c1C(=O)N(C1CCC(=O)NC1=O)C2=O (stereo not given) [Pomalidomide] | 0 | 0 | 0 | 0 | 0 | 0 | 0 | 0
COc1cc2ncnc(Nc3ccc(F)c(Cl)c3)c2cc1NC(=O)/C=C/CN1CCCCC1 [Dacomitinib] | 1 | 4.1 | 0 | 0.4 | 0 | 0.4 | 0.3 | 0
COc1cc(Nc2ncc3c(n2)-c2ccc(Cl)cc2C(c2c(F)cccc2OC)=NC3)ccc1C(=O)O [Alisertib] | 3.1 | 18.5 | 13.7 | 0.5 | 3.2 | 0.5 | 0 | 0
